Each structure is given as a SMILES string.

Data set [1] concerns large intestine cancer patients. The data set is described as follows: Treatment of large intestine cancer patients (Example 2). Type of data set: in vivo, human. As to conditions: Table 2. The text has this: Next, treatment of 11 large intestine cancer patients is described.
In principle, the same as Example 1.
The following is course of treatment of the large intestine cancer patients.

The conditions of data set [2]: cited from earlier work.

As to `O=C1O[C@H]([C@@H](O)CO)C(O)=C1O` [vitamin C, ascorbic acid], the Alive or dead result in data set [1] is listed as “Alive”. The stability to heat entry in data set [2] (heat) is recorded as “weak to heat”. The oxidation reduction potential result in data set [2] (pH 7.0) is “+0.058 V”.
